The values that follow come from ChEMBL document CHEMBL1122449, “Anticoccidial derivatives of 6-azauracil. 5. Potentiation by benzophenone side chains” (J Med Chem, 1983).

Data set [1] deals with Eimeria tenella. The experiment in a line: Anticoccidial activity which controlled infection by Eimeria tenella in Leghorn cockerels. Format: functional. As to conditions: read-out: MEC.
Data set [2] deals with Eimeria necatrix. The data set is described as follows: Anticoccidial activity which controlled infection by Eimeria necatrix in Leghorn cockerels; MEC means minimum effective concentration in parts per million. Format: functional. As to conditions: read-out: MEC.
The nature of data set [3]: Plasma half-life of the compound. Format: ADME.
The nature of data set [4]: Apparent pKa value was measured in 2:1 DMF/H2O. Format: physicochemical.
In data set [5] the test system is Eimeria acervulina. The experiment in a line: Anticoccidial activity which controlled infection by Eimeria acervulina in Leghorn cockerels. As to conditions: read-out: MEC.
Data set [6] in a line: Apparent pKa value was measured in 1:1 DMF/H2O. Format: physicochemical.

With `Cc1cc(-n2ncc(=O)[nH]c2=O)cc(C)c1C(O)c1ccc(Cl)cc1` (stereo not given), the minimal effective concentration in data set [1] turned out to be 30 µg/mL. Consider `CS(=O)(=O)c1ccc(C(=O)c2ccc(-n3ncc(=O)[nH]c3=O)cc2Cl)cc1`, for which the minimal effective concentration in data set [2] is over 15 µg/mL.

As to `Cc1cc(Cl)ccc1C(=O)c1ccc(-n2ncc(=O)[nH]c2=O)cc1C`, the minimal effective concentration in data set [1] came out at 15 µg/mL. `Cc1cc(-n2ncc(=O)[nH]c2=O)ccc1C(=O)c1ccc(Cl)cc1` gave a half-life in data set [3] of 13 h. The minimal effective concentration in data set [1] amounted to 8 µg/mL. Moreover, in data set [4], the pH1/2 amounted to 7.6.

Take `O=C(c1ccc(Cl)cc1Cl)c1ccc(-n2ncc(=O)[nH]c2=O)cc1Cl`: in data set [1], the minimal effective concentration was 4 µg/mL.

For the molecule `CC(=O)c1ccc(-n2ncc(=O)[nH]c2=O)cc1`, in data set [1], the minimal effective concentration is over 250 µg/mL. Besides, the pH1/2 in data set [4] is 6.53. Turning to `O=C(c1ccccc1)c1ccc(-n2ncc(=O)[nH]c2=O)cc1`, the minimal effective concentration in data set [1] was found to be 60 µg/mL. Further, in data set [4], the pH1/2 is 7.79. As to `COc1ccc(C(=O)c2ccc(-n3ncc(=O)[nH]c3=O)cc2)cc1`, in data set [1], the minimal effective concentration is 125 µg/mL.

Consider `Cc1cc(-n2ncc(=O)[nH]c2=O)ccc1C(O)c1ccc(Cl)cc1` (stereo not given), for which the minimal effective concentration in data set [1] was 15 µg/mL. Same read-out and setting: the same measure for `O=C(c1ccc(-n2ncc(=O)[nH]c2=O)cc1)c1cccs1`: over 250 µg/mL. In the case of `CSc1ccc(C(=O)c2ccc(-n3ncc(=O)[nH]c3=O)cc2Cl)cc1`, in data set [5], the minimal effective concentration was over 30 µg/mL. `O=C(c1ccc(Cl)cc1)c1ccc(-n2ncc(=O)[nH]c2=O)cc1Cl` showed a half-life in data set [3] of 20 h. For the same molecule, the minimal effective concentration in data set [1] was 2 µg/mL. The pH1/2 in data set [4] was found to be 7.16. Turning to `Cc1cc(-n2ncc(=O)[nH]c2=O)ccc1Cc1ccccc1`, in data set [1], the minimal effective concentration is 30 µg/mL.

In the case of `O=c1cnn(-c2ccc(C(O)c3ccc(Cl)cc3)c(Cl)c2)c(=O)[nH]1` (stereo not given), in data set [1], the minimal effective concentration came out at 2 µg/mL. Consider `Cc1cc(-n2ncc(=O)[nH]c2=O)cc(Cl)c1C(=O)c1ccc(Cl)cc1`, for which the half-life in data set [3] was 21 h. Besides, in data set [1], the minimal effective concentration amounted to 8 µg/mL. As to `O=C(c1ccccc1)c1cccc(-n2ncc(=O)[nH]c2=O)c1`, in data set [1], the minimal effective concentration was over 250 µg/mL. On the same count and under the same terms, the same measure for `Cc1cc(-n2ncc(=O)[nH]c2=O)cc(C)c1C(=O)c1ccc(Cl)cc1`: 15 µg/mL. Same read-out and setting: the same measure for `CC(=O)c1ccc(-n2ncc(=O)[nH]c2=O)cc1Cl`: 125 µg/mL. Turning to `O=C(c1ccccc1)c1ccc(-n2ncc(=O)[nH]c2=O)cc1Cl`, in data set [1], the minimal effective concentration came out at 15 µg/mL. Also, the pH1/2 in data set [4] was 7.04.

For the molecule `Cc1cc(C)c(C(=O)c2ccc(-n3ncc(=O)[nH]c3=O)cc2)c(C)c1`, the minimal effective concentration in data set [1] is over 250 µg/mL. For the same molecule, the pH1/2 in data set [4] was found to be 7.16. Regarding `O=C(c1ccccc1)c1cc(-n2ncc(=O)[nH]c2=O)ccc1Cl`, the minimal effective concentration in data set [1] was over 250 µg/mL. Consider `Cc1cc(-n2ncc(=O)[nH]c2=O)ccc1C(O)c1ccccc1` (stereo not given), for which, in data set [1], the minimal effective concentration amounted to 30 µg/mL. Moreover, in data set [6], the pH1/2 came to 7.37. On to `O=C(c1ccc(Cl)cc1)c1ccc(-n2ncc(=O)[nH]c2=O)cc1`, for which the minimal effective concentration in data set [1] worked out at 30 µg/mL. In the case of `O=c1cnn(-c2ccc(-c3ccc4oc5ccc(Cl)cc5c(=O)c4c3)cc2)c(=O)[nH]1`, the minimal effective concentration in data set [1] is over 250 µg/mL. The same measure, in the same setting: as for `CCCC(=O)c1ccc(-n2ncc(=O)[nH]c2=O)cc1`, the figure is over 60 µg/mL. As to `Cc1cc(-n2ncc(=O)[nH]c2=O)ccc1C(=O)c1ccc(C#N)cc1`, in data set [1], the minimal effective concentration was determined as 125 µg/mL. For the same molecule, in data set [4], the pH1/2 worked out at 7.08. Taken in the same sequence, the figures for `Cc1cc(-n2ncc(=O)[nH]c2=O)ccc1C(=O)c1ccccc1Cl` were 60 µg/mL and 7.08. As to `Cc1cc(-n2ncc(=O)[nH]c2=O)ccc1C(=O)c1ccc(Cl)cc1Cl`, in data set [3], the half-life was 45 h. The minimal effective concentration in data set [1] is 4 µg/mL. In the case of `Cc1cc(Br)ccc1C(=O)c1ccc(-n2ncc(=O)[nH]c2=O)cc1Cl`, the minimal effective concentration in data set [1] is 8 µg/mL. For `Cc1ccc(C(=O)c2ccc(-n3ncc(=O)[nH]c3=O)cc2)cc1`, the minimal effective concentration in data set [1] is over 250 µg/mL. `Cc1cc(-n2ncc(=O)[nH]c2=O)ccc1C(=O)c1ccccc1`: in data set [1], the minimal effective concentration stood at 8 µg/mL. For the same molecule, the pH1/2 in data set [6] worked out at 7.02.

A word on the half-life: it is how long it takes for the measured level to halve.
